Data reported in patent US8952024B2, “Herbicidal pyrimidone derivatives” (E I du Pont de Nemours and Company, priority 2009, dated 2015).

How the values were obtained:
Assay in all cases: Test B pre-/postemergence plant response
Assay type in all cases: in vivo
[1] = system: yellow nutsedge (Cyperus esculentus)
Summary of the method: (§1)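 Ratings reflect visual comparison with untreated controls 13 to 15 days after application, from 0 (no effect) to 100 (complete control). Application was preemergence to seeded loam/sand soil or postemergence to 1- to 4-leaf plants, with compound in a non-phytotoxic, surfactant-containing solvent.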

kochia (Kochia scoparia) = conditions: Preemergence
Summary of the method: as §1

[2] = system: wheat (Triticum aestivum)
Summary of the method: as §1

[3] = system: johnsongrass (Sorghum halepense)
Summary of the method: as §1

[4] = system: goosegrass (Eleusine indica)
Summary of the method: as §1

[5] = system: large crabgrass (Digitaria sanguinalis)
Summary of the method: as §1

[6] = system: woolly cupgrass (Eriochloa villosa)
Summary of the method: as §1

[7] = system: giant foxtail (Setaria faberii)
Summary of the method: as §1

[8] = system: velvetleaf (Abutilon theophrasti)
Summary of the method: as §1

[9] = system: lambsquarters (Chenopodium album)
Summary of the method: as §1

[10] = system: green foxtail (Setaria viridis)
Summary of the method: as §1

[11] = system: pigweed (Amaranthus retroflexus)
Summary of the method: as §1

[12] = system: downy bromegrass (Bromus tectorum)
Summary of the method: as §1

[13] = 250 g ai/ha, Preemergence, 0 to 100 scale
[14] = Postemergence, 31 g ai/ha, scale 0 to 100 (0 no effect, 100 complete control)
[15] = Postemergence, 62 g ai/ha, scale 0 (no effect) to 100 (complete control), 13 to 15 days
[16] = Postemergence, 125 g ai/ha, visual rating after 13 to 15 days, scale 0 (no effect) to 100 (complete control)
[17] = Postemergence, 250 g ai/ha, scale 0 to 100
[18] = Preemergence, 31 g ai/ha, scale 0 to 100 (0 no effect, 100 complete control)
[19] = Preemergence, 62 g ai/ha, scale 0 to 100 (0 no effect, 100 complete control)
[20] = Preemergence, 125 g ai/ha, 0 to 100 scale

In the case of `O=C1CCCC(O)=C1C(=O)c1cnc(-c2ccccc2)n(-c2ccccc2F)c1=O` [Compound 26], the “Plant response rating, Nutsedge, Yellow” value [1, 13] is reported as 85, the “Plant response rating, Nutsedge, Yellow” value [1, 14] is reported as 30 and the “Plant response rating, Nutsedge, Yellow” value [1, 15] is reported as 30. The “Plant response rating, Nutsedge, Yellow” value [1, 16] was 35, the “Nutsedge, Yellow plant response rating” value [1, 17] was 35 and the “Plant response rating, Nutsedge, Yellow” value [1, 18] was 10. The “Plant response rating, Nutsedge, Yellow” value [1, 19] was 50, the “Nutsedge, Yellow plant response rating” value [1, 20] was 50 and the “Plant response rating, Kochia” value (kochia (Kochia scoparia); 250 g ai/ha, 0 to 100 scale) was 100. The “Plant response rating, Kochia” value (kochia (Kochia scoparia); 31 g ai/ha, scale 0 to 100 (0 no effect, 100 complete control)) was 80, the “Plant response rating, Kochia” value (kochia (Kochia scoparia); 62 g ai/ha, scale 0 to 100 (0 no effect, 100 complete control)) was 100 and the “Kochia plant response rating” value (kochia (Kochia scoparia); 125 g ai/ha, 0 to 100 scale) was 100. For the same molecule, the “Plant response rating, Wheat” value [2, 13] was 0, the “Plant response rating, Wheat” value [2, 14] was 0 and the “Plant response rating, Wheat” value [2, 15] was 0. For the same molecule, the “Plant response rating, Wheat” value [2, 16] was 5, the “Wheat plant response rating” value [2, 17] was 30 and the “Plant response rating, Wheat” value [2, 18] was 0. For the same molecule, the “Plant response rating, Wheat” value [2, 19] was 0, the “Wheat plant response rating” value [2, 20] was 0 and the “Plant response rating, Johnsongrass” value [3, 13] was 90. For the same molecule, the “Plant response rating, Johnsongrass” value [3, 14] was 35, the “Plant response rating, Johnsongrass” value [3, 15] was 50 and the “Plant response rating, Johnsongrass” value [3, 16] was 50. For the same molecule, the “Johnsongrass plant response rating” value [3, 17] was 70, the “Plant response rating, Johnsongrass” value [3, 18] was 0 and the “Plant response rating, Johnsongrass” value [3, 19] was 10. The “Johnsongrass plant response rating” value [3, 20] was 60, the “Plant response rating, Goosegrass” value [4, 13] was 100 and the “Plant response rating, Goosegrass” value [4, 14] was 60. The “Plant response rating, Goosegrass” value [4, 15] was 90, the “Plant response rating, Goosegrass” value [4, 16] was 95 and the “Goosegrass plant response rating” value [4, 17] was 95. The “Plant response rating, Goosegrass” value [4, 18] was 5, the “Goosegrass plant response rating” value [4, 20] was 95 and the “Plant response rating, Crabgrass, Large” value [5, 13] was 100. The “Plant response rating, Crabgrass, Large” value [5, 14] was 40, the “Plant response rating, Crabgrass, Large” value [5, 15] was 50 and the “Plant response rating, Crabgrass, Large” value [5, 16] was 50. For the same molecule, the “Crabgrass, Large plant response rating” value [5, 17] was 80, the “Plant response rating, Crabgrass, Large” value [5, 18] was 0 and the “Plant response rating, Crabgrass, Large” value [5, 19] was 40. The “Crabgrass, Large plant response rating” value [5, 20] was 100, the “Plant response rating, Cupgrass, Woolly” value [6, 13] was 85 and the “Plant response rating, Cupgrass, Woolly” value [6, 14] was 40. For the same molecule, the “Plant response rating, Cupgrass, Woolly” value [6, 15] was 40, the “Plant response rating, Cupgrass, Woolly” value [6, 16] was 85 and the “Cupgrass, Woolly plant response rating” value [6, 17] was 85. The “Plant response rating, Cupgrass, Woolly” value [6, 18] was 0, the “Plant response rating, Cupgrass, Woolly” value [6, 19] was 5 and the “Cupgrass, Woolly plant response rating” value [6, 20] was 50. For the same molecule, the “Plant response rating, Foxtail, Giant” value [7, 13] was 90, the “Plant response rating, Foxtail, Giant” value [7, 14] was 60 and the “Plant response rating, Foxtail, Giant” value [7, 15] was 60. The “Plant response rating, Foxtail, Giant” value [7, 16] was 70, the “Foxtail, Giant plant response rating” value [7, 17] was 95 and the “Plant response rating, Foxtail, Giant” value [7, 18] was 5. For the same molecule, the “Plant response rating, Foxtail, Giant” value [7, 19] was 10, the “Foxtail, Giant plant response rating” value [7, 20] was 45 and the “Plant response rating, Velvetleaf” value [8, 13] was 100. The “Plant response rating, Velvetleaf” value [8, 14] was 70, the “Plant response rating, Velvetleaf” value [8, 15] was 70 and the “Plant response rating, Velvetleaf” value [8, 16] was 95. The “Velvetleaf plant response rating” value [8, 17] was 98, the “Plant response rating, Velvetleaf” value [8, 18] was 50 and the “Plant response rating, Velvetleaf” value [8, 19] was 90. For the same molecule, the “Velvetleaf plant response rating” value [8, 20] was 100, the “Plant response rating, Lambsquarters” value [9, 13] was 100 and the “Plant response rating, Lambsquarters” value [9, 14] was 80. The “Plant response rating, Lambsquarters” value [9, 15] was 90, the “Plant response rating, Lambsquarters” value [9, 16] was 90 and the “Lambsquarters plant response rating” value [9, 17] was 98. The “Plant response rating, Lambsquarters” value [9, 18] was 98, the “Plant response rating, Lambsquarters” value [9, 19] was 100 and the “Lambsquarters plant response rating” value [9, 20] was 100. The “Plant response rating, Foxtail, Green” value [10, 13] was 70, the “Plant response rating, Foxtail, Green” value [10, 14] was 35 and the “Plant response rating, Foxtail, Green” value [10, 15] was 40. The “Plant response rating, Foxtail, Green” value [10, 16] was 85, the “Foxtail, Green plant response rating” value [10, 17] was 95 and the “Plant response rating, Foxtail, Green” value [10, 18] was 0. For the same molecule, the “Plant response rating, Foxtail, Green” value [10, 19] was 0, the “Foxtail, Green plant response rating” value [10, 20] was 30 and the “Plant response rating, Pigweed” value [11, 13] was 100. The “Plant response rating, Pigweed” value [11, 14] was 50, the “Plant response rating, Pigweed” value [11, 15] was 80 and the “Plant response rating, Pigweed” value [11, 16] was 85. For the same molecule, the “Pigweed plant response rating” value [11, 17] was 98, the “Plant response rating, Pigweed” value [11, 18] was 98 and the “Plant response rating, Pigweed” value [11, 19] was 100. The “Pigweed plant response rating” value [11, 20] was 100, the “Plant response rating, Bromegrass, Downy” value [12, 13] was 10 and the “Plant response rating, Bromegrass, Downy” value [12, 14] was 10. For the same molecule, the “Plant response rating, Bromegrass, Downy” value [12, 15] was 15, the “Plant response rating, Bromegrass, Downy” value [12, 16] was 20 and the “Bromegrass, Downy plant response rating” value [12, 17] was 40. For the same molecule, the “Plant response rating, Bromegrass, Downy” value [12, 18] was 0, the “Plant response rating, Bromegrass, Downy” value [12, 19] was 0 and the “Bromegrass, Downy plant response rating” value [12, 20] was 0.
